Laboratory results: patent publication US20250367098A1, “SUNSCREEN COMPOSITION FOR LACTOBACILLUS AND S. EPIDERMIDIS PROTECTION ON SKIN” (DSM IP Assets B.V., priority 2022, published 2025)

Experiments:
[1] = test system: Lactobacillus crispatus CIP 103604; experiment: In vitro UV model: bacterial survival after UV irradiation (96-well, MPN method); format: cell-based
Description: (§1) Accordingly, the inventors developed a targeted in vitro liquid model in 96-well microplate format to screen for UV protective actives (“UV filters”) on bacterial survival upon UV irradiation. The effects of selected UV irradiation conditions tested on microbial population of Lactobacillus crispatus (L. crispatus) and Staphylococcus epidermidis (S. epidermidis) in the presence of UV filter samples and combinations thereof were evaluated with the evolution of the residual microbial population after 4 h. The inhibition of bacterial growth, as consequence of UV irradiation, was compared to that of the same strain without UV irradiation and was expressed in percentage of survival (%). The microbial strains used in this study are listed below and their cultures are reconstituted according to the direction of the supplier collection center of the reference strain, CRBIP (Institut Pasteur Collection, France) or ATCC (American Type Culture Collection, USA): • Lactobacillus crispatus CIP 103604 • Staphylococcus epidermidis ATCC 12228 The 96-well plate was filled with the culture media (140 μL) and a calibrated inoculum (20 μL) of each bacterial strain was added to reach […] colony forming units per milliliter (cfu/mL) final concentration. After contamination, the sample was added (40 μL; 20% v/v) in triplicate and was thoroughly mixed to ensure a homogeneous distribution. Then, the plate was submitted to UV stress through an UV irradiator system (BioSun, Vilber Lourmat, France) according to the UV doses presented Table 1 below. The specific UV dose selected was between 10 and 49% survival of the microbial population. For the microbial population counts, aliquots of the contaminated samples of L. crispatus and S. epidermidis were serially diluted (4 decimal dilutions followed by 8 binary dilutions, in triplicate) in culture media on 96-wells plates with triphenyltetrazolium. Then, the plates were incubated at 37° C.±2,5° C. during 48 h taking into account the respiratory type of each strain. […] The use level of the single UV filter and combinations in the test formulations was calculated to obtain a predicted in vitro SPF value of 5.75+/−0.15 and 23.45+/−0.65, respectively (Table 2). […] The relative percentage of protection (%) was calculated from the difference between the survival percentages of samples and vehicle control (with UV irradiation) and divided to the survival percentage of the vehicle control. Consequently, the survival of each microbial population and the relative protection by the UV filter(s) were calculated and are summarized in the Table 2.

[2] = test system: Staphylococcus epidermidis ATCC 12228; experiment: as above; format: cell-based
Description: as §1

SMILES | survival rate of L. crispatus after UV radiation (in words) ([1]; summary statement) | protection of S. epidermidis from UV radiation (in words) ([2]; summary statement) | L. crispatus relative protection by the UV filter(s) vs. vehicle control ([1]; 50 SED (500 mJ/cm^2 UVA+UVB), sample at 20% v/v, after 4 h) | S. epidermidis relative protection by the UV filter(s) vs. vehicle control ([2]; 15 SED (150 mJ/cm^2 UVA+UVB), sample at 20% v/v, after 4 h)
CCCCC(CC)COC(=O)C(C#N)=C(c1ccccc1)c1ccccc1 (stereo not shown) [Inv. 1, Octocrylene] | particularly good survival rate | efficiently protecting | – | –
CCCCC(CC)COC(=O)c1ccc(Nc2nc(Nc3ccc(C(=O)OCC(CC)CCCC)cc3)nc(Nc3ccc(C(=O)OCC(CC)CCCC)cc3)n2)cc1 (stereo not shown) [Inv. 3, Ethylhexyl Triazone] | – | – | (+100) % | (+59) %
